The record followed here is patent US20100062046A1, “POLYMORPHS OF NICOTINIC INTERMEDIATES” (priority 2006, published 2010).

Common to all, as to type: physicochemical
Series [1] is described as follows: Relative stability of crystalline forms, studies in dichloromethane, ethyl acetate, methanol and toluene. Conditions: compound II. Here is the method:
Form B was obtained mainly from fast evaporations of ethyl acetate and methyl ethyl ketone, and from a solvent/antisolvent. […] Form A has a melting point of ˜177° C. and Form B has a melting point of ˜170° C.

Series [2] in a line: Hygroscopicity of crystalline forms. Conditions: crystalline solid.
Series [3] in a line: Storage of Form C at high humidities. The settings on record: stored at high humidities. From the text:
and is observed when Form C is stored at high humidities. […] The lot used to generate this X-ray powder diffraction and Raman data may contain residual compound IV Form C.

Take `O=C(N1CC2CC(C1)c1cc([N+](=O)[O-])c([N+](=O)[O-])cc12)C(F)(F)F` [Compound II Form B, 1,5-Methano-1H-3-benzazepine-2,3,4,5-tetrahydro-7,8-dinitro-3-(trifluoroacetyl)]: the “form conversion upon heating” value in series [1] (upon heating) was “converts to Form A upon heating”. Take `O=C(N1CC2CC(C1)c1cc3nccnc3cc12)C(F)(F)F` [Compound III Form A, 6,10-Methano-6H-pyrazino[2,3-h][3]benzazepine,7,8,9,10-tetrahydro-8-(trifluoroacetyl)]: the hygroscopicity entry in series [2] is reported as “non-hygroscopic”.

As to `c1cnc2cc3c(cc2n1)C1CNCC3C1` [Compound IV Form C], in series [3], the “formation of N-carboxyvarenicline adduct on storage” value was “observed”. `O=C(N1CC2CC(C1)c1cc([N+](=O)[O-])c([N+](=O)[O-])cc12)C(F)(F)F` [Compound II Form A, 1,5-Methano-1H-3-benzazepine-2,3,4,5-tetrahydro-7,8-dinitro-3-(trifluoroacetyl)]: the “relative stability of crystalline forms” value in series [1] (ambient temperature and 60° C., dichloromethane, ethyl acetate, methanol, toluene) was “more stable than Form B”. In series [2], the hygroscopicity result is given as “non-hygroscopic”.
